ChEMBL document CHEMBL1909046, “DrugMatrix in vitro pharmacology data”

Experiments:
[1] = DRUGMATRIX: Tumor Necrosis Factor (TNF), Non-Selective radioligand binding (ligand: [125I] TNF-alpha); format: cell membranes, Membrane; details: u-937; Not Active = under 50% inhibition at 10 µM
Cytochrome P450 2C9 = Cytochrome P450 2C9 (Homo sapiens, UniProt P11712); details: bti-tn-5b1-4; further: in other assays of this panel Not Active means under 50% inhibition at 10 µM
[2] = molecular target: 5-hydroxytryptamine receptor 1B (Rattus norvegicus, UniProt P28564); format: cell membranes, Wistar, Cerebral cortex, Membrane; further: in other assays of this panel Not Active means under 50% inhibition at 10 µM
[3] = molecular target: Epidermal growth factor receptor (Homo sapiens, UniProt P00533); assay: DRUGMATRIX: Protein Tyrosine Kinase, EGF Receptor enzyme inhibition (substrate: Poly(Glu:Tyr)); format: cell-based, Insect cells; details: insect cells; Not Active = under 50% inhibition at 10 µM
[4] = molecular target: T1, Muscarinic acetylcholine receptor M4 (Homo sapiens, UniProt P08173); format: cell membranes, CHO-K1, Membrane; details: cho-k1; further: in other assays of this panel Not Active means under 50% inhibition at 10 µM
T1 sequence (P08173 whole entry): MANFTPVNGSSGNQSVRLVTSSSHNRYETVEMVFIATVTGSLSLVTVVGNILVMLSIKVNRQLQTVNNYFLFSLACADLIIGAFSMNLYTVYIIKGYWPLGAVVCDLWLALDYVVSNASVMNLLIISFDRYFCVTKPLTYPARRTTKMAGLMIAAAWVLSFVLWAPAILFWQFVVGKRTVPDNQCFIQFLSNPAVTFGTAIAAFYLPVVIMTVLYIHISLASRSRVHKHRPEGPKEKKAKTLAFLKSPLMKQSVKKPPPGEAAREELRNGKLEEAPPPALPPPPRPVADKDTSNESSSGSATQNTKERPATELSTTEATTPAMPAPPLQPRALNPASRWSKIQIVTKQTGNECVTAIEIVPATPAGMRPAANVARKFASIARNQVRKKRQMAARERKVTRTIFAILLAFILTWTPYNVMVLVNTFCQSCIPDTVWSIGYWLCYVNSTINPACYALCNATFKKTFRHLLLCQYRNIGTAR

Glucocorticoid receptor = molecular target: T2, Glucocorticoid receptor (Homo sapiens, UniProt P04150); details: hela s3; further: in other assays of this panel Not Active means under 50% inhibition at 10 µM
T2 sequence (P04150 whole entry): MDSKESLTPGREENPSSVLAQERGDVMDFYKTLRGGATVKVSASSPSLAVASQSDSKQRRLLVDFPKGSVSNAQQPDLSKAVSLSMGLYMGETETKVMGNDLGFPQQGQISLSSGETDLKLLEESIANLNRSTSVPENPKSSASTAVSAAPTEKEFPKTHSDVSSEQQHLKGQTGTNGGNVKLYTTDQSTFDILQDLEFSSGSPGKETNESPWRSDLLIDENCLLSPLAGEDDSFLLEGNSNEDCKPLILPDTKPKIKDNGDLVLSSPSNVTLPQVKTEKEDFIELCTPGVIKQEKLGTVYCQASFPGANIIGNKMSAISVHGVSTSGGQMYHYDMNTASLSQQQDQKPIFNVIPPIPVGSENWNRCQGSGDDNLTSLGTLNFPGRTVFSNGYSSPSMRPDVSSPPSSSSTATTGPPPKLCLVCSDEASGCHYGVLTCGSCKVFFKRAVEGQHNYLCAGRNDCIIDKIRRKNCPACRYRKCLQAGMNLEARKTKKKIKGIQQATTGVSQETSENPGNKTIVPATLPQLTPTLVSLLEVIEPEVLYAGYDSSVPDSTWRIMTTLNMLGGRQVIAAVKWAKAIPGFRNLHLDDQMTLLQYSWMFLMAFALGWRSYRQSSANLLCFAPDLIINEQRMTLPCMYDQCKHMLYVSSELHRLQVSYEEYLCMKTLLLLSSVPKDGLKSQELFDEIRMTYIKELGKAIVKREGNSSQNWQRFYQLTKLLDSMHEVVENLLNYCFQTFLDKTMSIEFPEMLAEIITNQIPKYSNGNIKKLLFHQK

[5] = DRUGMATRIX: GABAA, Chloride Channel, TBOB radioligand binding (ligand: [3H] TBOB); format: cell membranes, Rattus norvegicus, Wistar, Cerebral cortex, Membrane; details: Not Active = under 50% inhibition at 10 µM
[6] = molecular target: Receptor tyrosine-protein kinase erbB-2 (Homo sapiens, UniProt P04626); assay: biochemical; format: cell-based, Insect cells; details: insect cells
Caspase-1 = molecular target: T3, Caspase-1 (Homo sapiens, UniProt P29466); parameters: species or system Escherichia coli
T3 sequence (P29466 whole entry): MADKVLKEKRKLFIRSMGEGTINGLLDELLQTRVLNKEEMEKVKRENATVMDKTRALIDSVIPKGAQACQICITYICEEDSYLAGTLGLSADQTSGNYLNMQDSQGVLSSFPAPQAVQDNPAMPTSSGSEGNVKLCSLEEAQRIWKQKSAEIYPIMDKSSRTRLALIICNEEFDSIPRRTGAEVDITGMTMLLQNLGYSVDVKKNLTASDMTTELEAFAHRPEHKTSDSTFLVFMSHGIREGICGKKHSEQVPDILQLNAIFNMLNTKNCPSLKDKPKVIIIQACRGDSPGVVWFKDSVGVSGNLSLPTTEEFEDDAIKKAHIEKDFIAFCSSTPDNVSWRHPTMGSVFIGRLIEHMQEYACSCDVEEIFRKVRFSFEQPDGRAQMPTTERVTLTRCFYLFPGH

[7] = molecular target: Mitogen-activated protein kinase 1 (Homo sapiens, UniProt P28482); assay: DRUGMATRIX: Protein Serine/Threonine Kinase, ERK2 enzyme inhibition (substrate: Myelin Basic Protein); parameters: species or system Escherichia coli; details: Not Active = under 50% inhibition at 10 µM
[8] = molecular target: Kappa-type opioid receptor (Homo sapiens, UniProt P41145); assay: DRUGMATRIX: Opiate kappa (OP2, KOP) radioligand binding (ligand: [3H] Diprenorphine); format: cell membranes, HEK293, Membrane; details: hek293; Not Active = under 50% inhibition at 10 µM
Insulin receptor = Insulin receptor (Rattus norvegicus, UniProt P15127); format: cell membranes, Wistar, Liver, Membrane; further: in other assays of this panel Not Active means under 50% inhibition at 10 µM
[9] = molecular target: T4, C-C chemokine receptor type 4 (Homo sapiens, UniProt P51679); format: cell membranes, Membrane; details: chem-1; further: in other assays of this panel Not Active means under 50% inhibition at 10 µM
T4 sequence (P51679 whole entry): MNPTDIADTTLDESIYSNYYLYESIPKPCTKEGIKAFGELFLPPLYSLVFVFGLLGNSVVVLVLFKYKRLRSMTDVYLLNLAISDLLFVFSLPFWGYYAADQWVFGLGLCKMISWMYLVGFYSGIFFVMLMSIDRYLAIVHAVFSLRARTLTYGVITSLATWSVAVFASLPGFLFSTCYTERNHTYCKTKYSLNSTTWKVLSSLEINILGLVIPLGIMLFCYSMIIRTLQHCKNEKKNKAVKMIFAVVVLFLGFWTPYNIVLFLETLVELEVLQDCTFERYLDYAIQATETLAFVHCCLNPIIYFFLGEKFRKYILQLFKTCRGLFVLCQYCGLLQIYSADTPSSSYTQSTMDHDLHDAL

Melanocortin receptor 3 = Melanocortin receptor 3 (Homo sapiens, UniProt P41968); format: cell membranes, Membrane; details: hek293; further: in other assays of this panel Not Active means under 50% inhibition at 10 µM
Melanocortin receptor 3, sequence (P41968 whole entry): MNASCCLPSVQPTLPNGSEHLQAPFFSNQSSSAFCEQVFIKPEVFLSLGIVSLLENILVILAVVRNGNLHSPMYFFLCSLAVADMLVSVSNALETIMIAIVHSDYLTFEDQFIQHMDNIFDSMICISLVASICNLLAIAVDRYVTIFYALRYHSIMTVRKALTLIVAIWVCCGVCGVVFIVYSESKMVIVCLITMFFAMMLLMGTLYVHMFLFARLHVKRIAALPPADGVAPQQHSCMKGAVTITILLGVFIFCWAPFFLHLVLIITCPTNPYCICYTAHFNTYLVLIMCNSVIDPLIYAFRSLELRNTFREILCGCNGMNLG

Epidermal growth factor receptor, sequence (P00533 whole entry): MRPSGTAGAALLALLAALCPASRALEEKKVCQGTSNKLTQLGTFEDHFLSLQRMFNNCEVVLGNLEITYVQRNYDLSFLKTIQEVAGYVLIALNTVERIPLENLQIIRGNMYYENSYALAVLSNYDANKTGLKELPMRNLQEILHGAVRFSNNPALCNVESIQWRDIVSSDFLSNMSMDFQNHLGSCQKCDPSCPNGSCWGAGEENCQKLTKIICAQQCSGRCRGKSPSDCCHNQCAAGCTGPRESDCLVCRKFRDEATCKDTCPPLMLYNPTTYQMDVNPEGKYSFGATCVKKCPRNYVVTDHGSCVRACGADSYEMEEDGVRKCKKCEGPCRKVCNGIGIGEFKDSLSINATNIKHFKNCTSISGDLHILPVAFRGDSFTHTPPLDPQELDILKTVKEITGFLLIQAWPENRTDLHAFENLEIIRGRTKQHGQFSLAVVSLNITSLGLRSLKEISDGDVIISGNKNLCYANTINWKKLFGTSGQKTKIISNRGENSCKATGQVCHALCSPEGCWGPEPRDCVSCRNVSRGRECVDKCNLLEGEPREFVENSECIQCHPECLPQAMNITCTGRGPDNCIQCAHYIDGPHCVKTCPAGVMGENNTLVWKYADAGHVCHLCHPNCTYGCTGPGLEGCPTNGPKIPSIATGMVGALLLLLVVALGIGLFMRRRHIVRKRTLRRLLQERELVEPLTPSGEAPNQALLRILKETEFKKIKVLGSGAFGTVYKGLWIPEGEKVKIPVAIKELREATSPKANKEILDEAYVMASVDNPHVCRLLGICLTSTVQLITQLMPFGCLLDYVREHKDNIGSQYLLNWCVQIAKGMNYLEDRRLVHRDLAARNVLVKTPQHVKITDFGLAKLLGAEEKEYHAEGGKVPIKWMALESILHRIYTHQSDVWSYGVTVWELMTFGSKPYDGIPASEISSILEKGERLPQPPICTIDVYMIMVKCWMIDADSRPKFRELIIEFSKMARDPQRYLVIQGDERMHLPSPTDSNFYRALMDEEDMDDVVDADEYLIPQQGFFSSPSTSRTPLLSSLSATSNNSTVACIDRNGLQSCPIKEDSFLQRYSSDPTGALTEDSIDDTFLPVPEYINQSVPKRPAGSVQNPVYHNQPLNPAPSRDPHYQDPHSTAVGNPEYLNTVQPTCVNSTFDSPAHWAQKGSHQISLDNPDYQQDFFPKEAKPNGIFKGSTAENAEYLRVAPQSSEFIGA
Insulin receptor, sequence (P15127 27-759 limits assumed): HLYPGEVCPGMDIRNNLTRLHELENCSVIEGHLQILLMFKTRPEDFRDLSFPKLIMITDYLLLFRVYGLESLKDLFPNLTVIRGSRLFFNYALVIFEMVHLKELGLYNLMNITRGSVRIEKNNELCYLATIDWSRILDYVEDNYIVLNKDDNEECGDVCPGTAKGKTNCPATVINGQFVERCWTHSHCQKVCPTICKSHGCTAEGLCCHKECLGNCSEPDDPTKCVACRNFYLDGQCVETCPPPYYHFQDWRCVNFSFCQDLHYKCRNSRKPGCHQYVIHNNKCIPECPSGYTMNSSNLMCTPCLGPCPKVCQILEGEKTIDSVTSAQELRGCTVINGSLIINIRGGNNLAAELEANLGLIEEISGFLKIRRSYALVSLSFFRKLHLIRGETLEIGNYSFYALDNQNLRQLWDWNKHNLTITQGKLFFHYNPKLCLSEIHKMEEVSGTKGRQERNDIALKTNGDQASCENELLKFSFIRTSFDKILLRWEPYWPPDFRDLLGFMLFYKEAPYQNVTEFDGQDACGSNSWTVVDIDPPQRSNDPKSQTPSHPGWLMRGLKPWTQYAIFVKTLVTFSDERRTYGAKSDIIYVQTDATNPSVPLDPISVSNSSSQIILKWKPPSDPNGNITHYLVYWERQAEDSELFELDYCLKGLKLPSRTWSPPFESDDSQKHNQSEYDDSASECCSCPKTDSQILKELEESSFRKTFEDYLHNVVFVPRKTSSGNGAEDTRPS
Insulin receptor, sequence (P15127 764-1383 limits assumed): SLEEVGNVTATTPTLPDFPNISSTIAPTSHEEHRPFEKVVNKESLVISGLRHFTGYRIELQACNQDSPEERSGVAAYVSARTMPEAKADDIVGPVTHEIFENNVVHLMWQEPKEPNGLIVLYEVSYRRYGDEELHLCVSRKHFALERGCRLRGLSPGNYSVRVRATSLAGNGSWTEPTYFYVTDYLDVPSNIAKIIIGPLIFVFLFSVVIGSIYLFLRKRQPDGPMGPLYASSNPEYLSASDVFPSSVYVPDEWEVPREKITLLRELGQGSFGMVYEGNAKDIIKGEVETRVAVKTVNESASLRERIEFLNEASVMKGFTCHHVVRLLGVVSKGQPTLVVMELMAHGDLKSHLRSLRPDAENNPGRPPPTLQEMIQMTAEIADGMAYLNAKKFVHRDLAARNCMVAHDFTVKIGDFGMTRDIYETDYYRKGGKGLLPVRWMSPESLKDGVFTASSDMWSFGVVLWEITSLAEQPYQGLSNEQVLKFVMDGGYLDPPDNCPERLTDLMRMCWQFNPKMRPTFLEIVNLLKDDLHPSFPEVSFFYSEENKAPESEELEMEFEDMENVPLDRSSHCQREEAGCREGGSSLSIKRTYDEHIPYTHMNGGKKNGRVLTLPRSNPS
5-hydroxytryptamine receptor 1B, sequence (P28564 whole entry): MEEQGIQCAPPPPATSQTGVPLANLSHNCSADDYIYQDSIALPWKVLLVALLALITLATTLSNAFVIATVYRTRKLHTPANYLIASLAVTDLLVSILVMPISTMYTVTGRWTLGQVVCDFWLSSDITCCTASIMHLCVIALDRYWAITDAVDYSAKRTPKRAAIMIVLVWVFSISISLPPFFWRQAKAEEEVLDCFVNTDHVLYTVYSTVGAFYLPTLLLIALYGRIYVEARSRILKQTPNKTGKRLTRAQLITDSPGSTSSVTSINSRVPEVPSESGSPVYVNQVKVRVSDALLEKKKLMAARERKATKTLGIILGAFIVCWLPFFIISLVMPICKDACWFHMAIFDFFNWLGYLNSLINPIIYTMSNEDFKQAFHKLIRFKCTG
Cytochrome P450 2C9, sequence (P11712 whole entry): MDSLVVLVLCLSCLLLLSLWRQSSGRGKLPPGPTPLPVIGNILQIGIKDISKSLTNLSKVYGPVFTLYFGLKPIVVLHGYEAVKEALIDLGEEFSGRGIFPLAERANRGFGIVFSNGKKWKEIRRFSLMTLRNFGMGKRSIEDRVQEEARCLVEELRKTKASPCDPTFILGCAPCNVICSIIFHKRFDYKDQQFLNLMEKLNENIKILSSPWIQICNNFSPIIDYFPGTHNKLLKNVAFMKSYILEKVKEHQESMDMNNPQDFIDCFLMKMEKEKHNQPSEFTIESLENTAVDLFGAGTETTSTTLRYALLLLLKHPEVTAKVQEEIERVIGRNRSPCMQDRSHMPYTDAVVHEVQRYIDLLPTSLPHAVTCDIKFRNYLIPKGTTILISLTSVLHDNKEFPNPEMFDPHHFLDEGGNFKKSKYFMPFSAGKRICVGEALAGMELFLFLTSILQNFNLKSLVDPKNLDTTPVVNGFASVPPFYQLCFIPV
Kappa-type opioid receptor, sequence (P41145 whole entry): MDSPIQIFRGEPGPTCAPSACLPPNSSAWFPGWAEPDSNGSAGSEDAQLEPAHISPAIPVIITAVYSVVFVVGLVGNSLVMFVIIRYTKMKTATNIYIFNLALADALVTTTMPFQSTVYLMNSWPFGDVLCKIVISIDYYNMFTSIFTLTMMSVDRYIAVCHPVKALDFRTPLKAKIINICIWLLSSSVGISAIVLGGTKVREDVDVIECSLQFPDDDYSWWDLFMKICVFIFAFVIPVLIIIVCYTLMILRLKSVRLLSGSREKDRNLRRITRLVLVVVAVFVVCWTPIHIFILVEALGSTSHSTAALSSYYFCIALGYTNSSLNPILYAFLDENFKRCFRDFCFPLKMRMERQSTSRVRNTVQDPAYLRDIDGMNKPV
Mitogen-activated protein kinase 1, sequence (P28482 whole entry): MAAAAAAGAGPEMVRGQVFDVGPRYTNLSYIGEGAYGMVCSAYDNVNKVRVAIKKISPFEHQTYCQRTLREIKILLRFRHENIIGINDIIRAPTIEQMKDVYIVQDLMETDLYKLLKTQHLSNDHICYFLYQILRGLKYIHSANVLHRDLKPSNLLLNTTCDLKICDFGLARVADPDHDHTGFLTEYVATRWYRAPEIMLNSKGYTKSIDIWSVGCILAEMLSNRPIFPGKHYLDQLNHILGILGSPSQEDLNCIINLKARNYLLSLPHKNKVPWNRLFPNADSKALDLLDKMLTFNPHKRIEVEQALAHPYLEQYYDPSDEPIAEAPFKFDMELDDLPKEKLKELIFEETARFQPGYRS

CC(=O)CCCCn1c(=O)c2c(ncn2C)n(C)c1=O [PENTOXIFYLLINE]
Not Active: IC50 [1] | Ki [1] | IC50 (Cytochrome P450 2C9) | Ki (Cytochrome P450 2C9) | IC50 [2] | IC50 [3] | IC50 [4] | IC50 (Glucocorticoid receptor) | IC50 [5] | Ki [5] | IC50 [6] | IC50 (Caspase-1) | IC50 [7] | IC50 [8] | IC50 (Insulin receptor) | IC50 [9] | IC50 (Melanocortin receptor 3)

O=C1NC(=O)C(c2ccccc2)(c2ccccc2)N1 [PHENYTOIN]
Not Active: IC50 [1] | Ki [1] | IC50 (Cytochrome P450 2C9) | Ki (Cytochrome P450 2C9) | IC50 [2] | IC50 [3] | IC50 [4] | IC50 (Glucocorticoid receptor) | IC50 [5] | Ki [5] | IC50 [6] | IC50 (Caspase-1) | IC50 [7] | IC50 [8] | IC50 (Insulin receptor) | IC50 [9] | IC50 (Melanocortin receptor 3)

CNC(=O)Oc1ccc2c(c1)[C@]1(C)CCN(C)[C@@H]1N2C [PHYSOSTIGMINE]
Not Active: IC50 [1] | Ki [1] | IC50 (Cytochrome P450 2C9) | Ki (Cytochrome P450 2C9) | IC50 [2] | IC50 [3] | IC50 [4] | IC50 (Glucocorticoid receptor) | IC50 [5] | Ki [5] | IC50 [6] | IC50 (Caspase-1) | IC50 [7] | IC50 [8] | IC50 (Insulin receptor) | IC50 [9] | IC50 (Melanocortin receptor 3)

CN1C(C(=O)Nc2ccccn2)=C(O)c2ccccc2S1(=O)=O [PIROXICAM]
Not Active: IC50 [1] | Ki [1] | IC50 (Cytochrome P450 2C9) | Ki (Cytochrome P450 2C9) | IC50 [2] | IC50 [3] | IC50 [4] | IC50 (Glucocorticoid receptor) | IC50 [5] | Ki [5] | IC50 [6] | IC50 (Caspase-1) | IC50 [7] | IC50 [8] | IC50 (Insulin receptor) | IC50 [9] | IC50 (Melanocortin receptor 3)

CCC1(c2ccccc2)C(=O)NCNC1=O [PRIMIDONE]
Not Active: IC50 [1] | Ki [1] | IC50 (Cytochrome P450 2C9) | Ki (Cytochrome P450 2C9) | IC50 [2] | IC50 [3] | IC50 [4] | IC50 (Glucocorticoid receptor) | IC50 [5] | Ki [5] | IC50 [6] | IC50 (Caspase-1) | IC50 [7] | IC50 [8] | IC50 (Insulin receptor) | IC50 [9] | IC50 (Melanocortin receptor 3)

COc1ccc(CN(CCN(C)C)c2ccccn2)cc1 [PYRILAMINE]
Not Active: IC50 [1] | Ki [1] | IC50 (Cytochrome P450 2C9) | Ki (Cytochrome P450 2C9) | IC50 [2] | IC50 [3] | IC50 [4] | IC50 (Glucocorticoid receptor) | IC50 [5] | Ki [5] | IC50 [6] | IC50 (Caspase-1) | IC50 [7] | IC50 [8] | IC50 (Insulin receptor) | IC50 [9] | IC50 (Melanocortin receptor 3)
